The values that follow come from ChEMBL document CHEMBL4371009, “Polypharmacology by Design: A Medicinal Chemist's Perspective on Multitargeting Compounds” (J Med Chem, 2019).

In experiment [1] the target is T1, 5-hydroxytryptamine receptor 1A (Homo sapiens, UniProt P08908).
T1 sequence (P08908 whole entry): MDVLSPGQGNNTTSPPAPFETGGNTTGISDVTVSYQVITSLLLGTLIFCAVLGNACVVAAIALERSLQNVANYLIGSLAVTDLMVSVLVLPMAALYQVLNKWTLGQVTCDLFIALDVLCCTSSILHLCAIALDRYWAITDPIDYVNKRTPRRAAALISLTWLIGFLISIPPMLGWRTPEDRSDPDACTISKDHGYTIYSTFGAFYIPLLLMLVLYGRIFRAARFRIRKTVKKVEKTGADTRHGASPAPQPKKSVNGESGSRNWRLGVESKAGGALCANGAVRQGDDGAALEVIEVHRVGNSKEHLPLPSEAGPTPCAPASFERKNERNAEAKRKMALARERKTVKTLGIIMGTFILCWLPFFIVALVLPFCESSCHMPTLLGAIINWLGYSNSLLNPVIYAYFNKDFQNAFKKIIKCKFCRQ
Nature of the experiment: Displacement of [3H]-Way100635 from 5HT1A (unknown origin) expressed in CHO cell membranes. In general terms: Displacement assays read how much labelled ligand stays bound in the presence of the test substance.

A further experiment concerns the target D(3) dopamine receptor (Homo sapiens, UniProt P35462). The experiment can be described thus: Displacement of [3H]-N-methylspiperone from dopamine D3 receptor (unknown origin) expressed in HEK293 cell membranes.
The next experiment deals with T2, D(4) dopamine receptor (Homo sapiens, UniProt P21917).
T2 sequence (P21917 whole entry): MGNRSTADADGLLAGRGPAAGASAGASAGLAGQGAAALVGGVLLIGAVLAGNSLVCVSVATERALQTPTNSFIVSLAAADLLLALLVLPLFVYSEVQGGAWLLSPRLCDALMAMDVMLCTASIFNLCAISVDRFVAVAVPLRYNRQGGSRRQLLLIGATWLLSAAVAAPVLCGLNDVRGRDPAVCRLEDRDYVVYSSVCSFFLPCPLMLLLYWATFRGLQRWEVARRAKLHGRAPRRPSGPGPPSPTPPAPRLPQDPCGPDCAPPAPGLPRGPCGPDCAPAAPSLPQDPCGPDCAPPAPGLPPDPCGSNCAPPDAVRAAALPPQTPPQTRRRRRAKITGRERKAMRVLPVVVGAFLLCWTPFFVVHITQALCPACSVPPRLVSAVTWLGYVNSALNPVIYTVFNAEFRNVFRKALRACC
The experiment can be described thus: Displacement of [3H]-N-methylspiperone from dopamine D4 receptor (unknown origin) expressed in HEK293 cell membranes.

Molecules are shown by their SMILES.

D(3) dopamine receptor, sequence (P35462 whole entry): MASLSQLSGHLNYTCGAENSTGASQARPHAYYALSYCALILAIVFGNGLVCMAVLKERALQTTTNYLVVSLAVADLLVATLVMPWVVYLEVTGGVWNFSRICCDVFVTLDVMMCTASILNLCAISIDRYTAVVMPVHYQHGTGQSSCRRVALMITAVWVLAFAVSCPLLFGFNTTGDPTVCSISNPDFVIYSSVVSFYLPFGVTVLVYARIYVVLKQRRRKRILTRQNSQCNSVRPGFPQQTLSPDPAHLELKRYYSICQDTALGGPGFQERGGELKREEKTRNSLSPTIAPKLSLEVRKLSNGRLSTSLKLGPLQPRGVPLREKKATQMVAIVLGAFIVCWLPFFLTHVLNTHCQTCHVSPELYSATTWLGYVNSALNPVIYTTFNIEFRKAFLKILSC

Usually Ki stands for the dissociation constant of the complex between target and ligand, obtained from inhibition or displacement. Read a high Ki as lower affinity. On to `COc1cc2c(cc1OC)C(=O)N(CCCCN1CCN(c3ccccn3)CC1)CCC2`, for which the inhibitory constant (Ki) worked out at 1.2 nM in experiment [1], 3 nM on D(3) dopamine receptor and 6.5 nM at D(4) dopamine receptor.
